# Assay results as given in patent US6242199A, “Assays for growth hormone secretagogue receptors” (Merck & Co., Inc., priority 1998, dated 2001).
# pIC50: −log10 of the molar value. Where no end group is shown, it is not given here.
# Target: growth hormone secretagogue receptor (GHSR) of swine, native receptor of the anterior pituitary (swine) (UniProt Q95254)
# Assay: competition with [35S]-Compound A on porcine anterior pituitary membranes, filtration
# Conditions: not given
row,affinity as percent of that of Compound A,Compound
1,3.8%,GHRP-6 (peptide)

# Target: T1, growth hormone secretagogue receptor (GHSR), porcine anterior pituitary membranes (Sus scrofa, UniProt Q95254)
# T1 construct: Frozen anterior pituitary glands from male swine (50-80 Kg); from tissue; host or cells: anterior pituitary glands of male swine (50-80 kg), crude membranes
# Assay: [35S]-Compound A radioreceptor binding, porcine anterior pituitary membranes
# Conditions: not given
# Protocol: Frozen anterior pituitary glands from male swine (50-80 Kg) or from the Wistar male rats (150-200 g) were homogenized in a tissue homogenizer in ice-cold buffer (50 mM Tris-HCl buffer, pH 7.4, 5 mM MgCl2, 2.5 mM EDTA, 0.1% bovine serum albumin and 30 μg/ml bacitracin). The homogenates were centrifuged for 5 min at 1,400×g and the resulting supernatants were then centrifuged at 34,000×g for 20 min. The pellets were resuspended in same buffer to a 1,500 μg protein/ml and stored at -80° C. Protein was determined by a Bio-Rad method (Bio-Rad Laboratories, Richmond, Calif.).
# Aliquots were incubated at 20° C. for 60 min and bound radioligand was separated from free by filtration through GF/C filters pretreated with 0.5% of polyethylenimine in a Brandel cell harvester. […] Assays were carried out in triplicate and experiments repeated at least three times.
# T1 sequence (Q95254 whole entry): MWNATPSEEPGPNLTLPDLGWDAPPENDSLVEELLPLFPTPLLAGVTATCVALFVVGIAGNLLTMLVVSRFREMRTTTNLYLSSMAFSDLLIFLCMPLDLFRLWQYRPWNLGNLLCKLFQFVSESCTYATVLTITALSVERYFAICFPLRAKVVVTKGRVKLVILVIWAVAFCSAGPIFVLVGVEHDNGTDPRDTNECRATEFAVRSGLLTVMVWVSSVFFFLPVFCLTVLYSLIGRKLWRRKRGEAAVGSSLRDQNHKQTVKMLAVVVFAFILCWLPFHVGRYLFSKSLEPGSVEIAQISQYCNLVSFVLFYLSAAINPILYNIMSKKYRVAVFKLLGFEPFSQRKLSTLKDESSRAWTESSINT
row,Compound,pIC50
1,Nc1nc2c(ncn2[C@@H]2O[C@H](COP(=O)(O)OP(=O)(O)OP(O)(O)=S)[C@@H](O)[C@H]2O)c(=O)[nH]1 [GTP-γ-S],7.52

# Same assay, conditions: 1 μM
row,Compound,competition with [35S]-Compound A at 1 μM (in words)
1,NC(=O)[C@@H]1CCCN1C(=O)[C@H](Cc1cnc[nH]1)NC(=O)[C@@H]1CCC(=O)N1 [thyrotropin releasing hormone],did not compete
2,somatostatin: hypothalamic hormone,did not compete
3,CC(C)C[C@H]1C(=O)N2CCC[C@H]2[C@]2(O)O[C@](NC(=O)[C@@H]3C=C4c5cccc6[nH]c(Br)c(c56)C[C@H]4N(C)C3)(C(C)C)C(=O)N12 [bromocriptine],did not compete
4,melanocyte stimulating hormone,did not compete
5,"gastrin releasing peptide (VPLPAGGGTVLTKMYPRGNHWAVGHLM; ends and bridges not checked; UniProt P07492 24-50, looked up)",did not compete
6,galanin,did not compete
7,substance P,did not compete
8,"PHM-27 (HADGVFTSDFSKLLGQLSAKKYLESLM; ends and bridges not checked; UniProt P01282 81-107, looked up)",did not compete
9,"GHRH: hypothalamic hormone, growth hormone releasing factor",did not compete
10,COc1cccc(OC)c1OCCNCC1CSc2ccccc2O1 (stereo not drawn) [benoxathian],did not compete
11,gonadotropin releasing hormone,did not compete
12,CC(C)NC[C@H](O)COc1cccc2ccccc12 (racemic) [propanolol],did not compete
13,CC(C)NCC(O)c1ccc(O)c(O)c1 (stereo not drawn) [isoproterenol],did not compete
14,CC(COc1ccccc1)N(CCCl)Cc1ccccc1 (stereo not drawn) [phenoxybenzamine],did not compete
15,Clc1cccc(Cl)c1N=C1NCCN1 [clonidine],did not compete
16,pituitary adenylate cyclase activating polypeptide-38,did not compete
17,COc1ccc(OC)c(C(O)C(C)N)c1 (stereo not drawn) [methoxamine],did not compete
18,met-enkephalin,did not compete

# Same assay, conditions: % of affinity of Compound A
row,affinity relative to that of Compound A,Compound
1,3.8%,GHRP-6
2,0.4%,CC(C)(N)CC(=O)N[C@@H]1CCc2ccccc2N(Cc2ccc(-c3ccccc3-c3nn[nH]n3)cc2)C1=O [Compound B]

# Same assay, conditions: GTP analogs / nucleotides; FIG. 26; read-out: inhibition of [35S]-Compound A binding, IC50
row,pIC50,Compound
1,6.96,Nc1nc2c(ncn2[C@@H]2O[C@H](COP(=O)(O)OP(=O)(O)NP(=O)(O)O)[C@@H](O)[C@H]2O)c(=O)[nH]1 [GMP-PNP]

# Same assay, conditions: double reciprocal plot of saturation isotherm; FIG. 25
row,Compound,nature of competition with [35S]-Compound A (in words)
1,GHRP-6,interacts competitively with Compound A in the same binding site
2,CC(C)(N)CC(=O)N[C@@H]1CCc2ccccc2N(Cc2ccc(-c3ccccc3-c3nn[nH]n3)cc2)C1=O [Compound B],competitor of [^35 S]-Compound A binding

# Same assay, conditions: nucleotides; FIG. 26
row,Compound,effect on [35S]-Compound A binding (in words)
1,Nc1ncnc2c1ncn2[C@@H]1O[C@H](COP(=O)(O)OP(=O)(O)OP(O)(O)=S)[C@@H](O)[C@H]1O [ATP-γ-S],ineffective

# Same assay, conditions: unlabeled competitor; FIG. 24
row,displacement of / competition with [35S]-Compound A binding (in words),Compound
1,competed poorly,CC(C)(N)CC(=O)N[C@H]1CCc2ccccc2N(Cc2ccc(-c3ccccc3-c3nn[nH]n3)cc2)C1=O [Compound C]
